Data: ChEMBL document CHEMBL1126901, “2-Thio derivatives of dUrd and 5-fluoro-dUrd and their 5'-monophosphates: synthesis, interaction with tumor thymidylate synthase, and in vitro antitumor activity” (J Med Chem, 1993)

How the values were obtained:
L5178Y [1] = test: Inhibitory concentration of compound was calculated on L5178Y cells by [14C]Leu incorporation; assay type: functional, cell-based, Mus musculus
NIH3T3 [2] = test: Inhibitory concentration of compound was calculated on 3T3 cells by [14C]Leu incorporation; assay type: functional, cell-based, Mus musculus
L5178Y [3] = test: Inhibitory concentration of compound rwas calculated on L5178Y cells by [3H]Thd incorporation; assay type: functional, cell-based, Mus musculus
L5178Y [4] = test: Inhibitory concentration of compound was calculated on L5178Y cells by using clonal assay; assay type: functional, cell-based, Mus musculus
NIH3T3 [5] = test: Inhibitory concentration of compound was calculated on 3T3 cells by using clonal assay; assay type: functional, cell-based, Mus musculus
L5178Y [6] = test: Inhibitory concentration of compound was calculated on L5178Y cells by using growth assay; assay type: functional, cell-based, Mus musculus
NIH3T3 [7] = test: Inhibitory concentration of compound rwas calculated on 3T3 cells by [3H]Thd incorporation; assay type: functional, cell-based, Mus musculus
NIH3T3 [8] = test: Inhibitory concentration was calculated on 3T3 cells by using growth assay; assay type: functional, cell-based, Mus musculus
[9] = target: Thymidylate synthase (Mus musculus) (UniProt P07607)
Thymidylate synthase (Mus musculus), sequence (P07607 whole entry, looked up): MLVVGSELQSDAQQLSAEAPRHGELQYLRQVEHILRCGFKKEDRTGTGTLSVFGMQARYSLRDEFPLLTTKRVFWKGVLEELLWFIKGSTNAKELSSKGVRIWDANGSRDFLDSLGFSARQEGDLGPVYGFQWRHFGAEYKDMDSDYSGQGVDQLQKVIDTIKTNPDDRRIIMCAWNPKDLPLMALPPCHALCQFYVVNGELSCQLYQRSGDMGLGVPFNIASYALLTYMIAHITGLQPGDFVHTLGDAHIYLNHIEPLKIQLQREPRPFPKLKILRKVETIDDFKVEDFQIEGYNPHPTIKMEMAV
Description: The reaction rate(Ki') of compound was measured for inactivation of L1210 Thymidylate Synthase

[10] = target: Thymidylate synthase (Mus musculus) (UniProt P07607); remark: listed apart in the source
Description: The time dependent reaction (k2'(1/min)) of compound was measured for inactivation of L1210 Thymidylate Synthase

Thymidylate synthase [11] = target: T1, Thymidylate synthase (Mus musculus, UniProt P07607); test: Apparent Ki value was measured by competitive inhibition of Thymidylate Synthase from Ehrlich Carcinoma cells of mouse; assay type: cell-based
T1 sequence (P07607 whole entry): as the sequence (P07607 whole entry, looked up) above

[12] = target: Thymidylate synthase (Mus musculus) (UniProt P07607); remark: listed apart in the source
Description: The time dependent reaction (k2''(1/min)) of compound was measured for inactivation of Ehrlich Carcinoma Thymidylate Synthases

Thymidylate synthase [13] = target: T1, Thymidylate synthase; test: Apparent Ki value was measured by competitive inhibition of Thymidylate Synthase from L1210 cells of mouse; assay type: cell-based
[14] = target: Thymidylate synthase (Mus musculus) (UniProt P07607); remark: listed apart in the source
Description: The time dependent reaction (k2''(1/min)) of compound was measured for inactivation of L1210 Thymidylate Synthase

[15] = target: Thymidylate synthase (Mus musculus) (UniProt P07607); remark: listed apart in the source
Description: The time dependent reaction (k2''(1/min)) of compound was measured for inactivation of Ehrlich Carcinoma Thymidylate Synthase

[16] = target: Thymidylate synthase (Mus musculus) (UniProt P07607); remark: listed apart in the source
Description: The reaction rate(Ki') of compound was measured for inactivation of Ehrlich Carcinoma Thymidylate Synthases

[17] = target: Thymidylate synthase (Mus musculus) (UniProt P07607); remark: listed apart in the source
Description: The reaction rate(Ki'') of compound was measured for inactivation of Ehrlich Carcinoma Thymidylate Synthases

[18] = target: Thymidylate synthase (Mus musculus) (UniProt P07607); remark: listed apart in the source
Description: The reaction rate(Ki'') of compound was measured for inactivation of L1210 Thymidylate Synthase

[19] = target: Thymidylate synthase (Mus musculus) (UniProt P07607); remark: listed apart in the source
Description: The time dependent reaction (k2''(1/min)) of compound was measured for inactivation of L1210 Thymidylate Synthases

[20] = target: Thymidylate synthase (Mus musculus) (UniProt P07607); remark: listed apart in the source
Description: The reaction rate(Ki'') of compound was measured for inactivation of L1210 Thymidylate Synthases

[21] = target: Thymidylate synthase (Mus musculus) (UniProt P07607); remark: listed apart in the source
Description: The time dependent reaction (k2'(1/min)) of compound was measured for inactivation of Ehrlich Carcinoma Thymidylate Synthases

[22] = target: Thymidylate synthase (Mus musculus) (UniProt P07607); remark: listed apart in the source
Description: The time dependent reaction (k2'(1/min)) of compound was measured for inactivation of L1210 Thymidylate Synthases

[23] = target: Thymidylate synthase (Mus musculus) (UniProt P07607); remark: listed apart in the source
Description: The reaction rate(Ki') of compound was measured for inactivation of L1210 Thymidylate Synthases

Structure (SMILES) | IC50 (L5178Y [1]; Mus musculus, L5178Y) | IC50 (NIH3T3 [2]; Mus musculus, NIH3T3) | IC50 (L5178Y [3]; Mus musculus, L5178Y) | IC50 (L5178Y [4]; Mus musculus, L5178Y) | IC50 (NIH3T3 [5]; Mus musculus, NIH3T3) | IC50 (L5178Y [6]; Mus musculus, L5178Y) | IC50 (NIH3T3 [7]; Mus musculus, NIH3T3) | IC50 (NIH3T3 [8]; Mus musculus, NIH3T3) | IC50 (L5178Y [1]; l5178y) | IC50 (NIH3T3 [2]; nih3t3) | IC50 (L5178Y [3]; l5178y) | IC50 (L5178Y [4]; l5178y) | IC50 (NIH3T3 [5]; nih3t3) | IC50 (L5178Y [6]; l5178y) | IC50 (NIH3T3 [7]; nih3t3) | IC50 (NIH3T3 [8]; nih3t3) | k2' [12] | Ki' [16] | Ki'' [17] | further results
O=c1[nH]c(=S)n([C@@H]2C[C@H](O)[C@@H](CO)O2)cc1F | 10 µM | 2000 µM | 10 µM | 20 µM | 500 µM | 25 µM | 100 µM | 400 µM |  |  |  |  |  |  |  |  |  |  |  | 
O=c1[nH]c(=S)n([C@H]2C[C@H](O)[C@@H](CO)O2)cc1F | 1 µM | 5 µM | 1.4 µM | 4.5 µM | 7 µM | 2 µM | 4 µM | 4 µM |  |  |  |  |  |  |  |  |  |  |  | 
O=c1[nH]c(=O)n([C@H]2C[C@H](O)[C@@H](CO)O2)cc1F (stereo in doubt; 22) [FLOXURIDINE] |  |  |  |  |  |  |  |  | 2 µM | 250 µM | 4 µM | 5 µM | 60 µM | 5 µM | 60 µM | 150 µM |  |  |  | 
O=c1[nH]c(=S)n(C2C[C@@H](OP(=O)(O)O)[C@@H](COP(=O)(O)O)O2)cc1F (stereo not given in full) |  |  |  |  |  |  |  |  |  |  |  |  |  |  |  |  | 0.36 min⁻¹ | 0.079 µM | 0.049 µM | Ki' [9]: 0.041 µM; k2' [10]: 0.12 min⁻¹; Ki (Thymidylate synthase [11]): 0.14 µM; Ki (Thymidylate synthase [13]): 0.07 µM; k2'' [14]: 0.02 min⁻¹; k2'' [15]: 0.06 min⁻¹; Ki'' [18]: 0.046 µM
O=c1[nH]c(=O)n([C@H]2C[C@H](O)[C@@H](CO)O2)cc1F (stereo in doubt) [FLOXURIDINE] |  |  |  |  |  |  |  |  | 0.009 µM | 3.2 µM | 0.015 µM | 0.02 µM | 0.6 µM | 0.025 µM | 0.5 µM | 1 µM |  |  |  | 
O=c1[nH]c(=O)n([C@H]2C[C@H](O)[C@@H](COP(=O)(O)O)O2)cc1F |  |  |  |  |  |  |  |  |  |  |  |  |  |  |  |  | 0.18 min⁻¹ | 0.0055 µM | 0.071 µM | k2' [19]: 0.17 min⁻¹; Ki'' [20]: 0.02 µM; k2'' [21]: 0.17 min⁻¹; k2'' [22]: 0.12 min⁻¹; Ki' [23]: 0.0018 µM
